What was measured:
in vivo [1] = settings: Balb/c, mouse, iv, 0.5 mg/kg
in vivo [2] = settings: Balb/c, mouse, iv, 0.5 mg/kg; remark: listed apart in the source
in vivo [3] = settings: Balb/c, mouse, po, 5 mg/kg
in vivo [4] = settings: Balb/c, mouse, po, 5 mg/kg; remark: listed apart in the source
in vivo [5] = settings: Balb/c, mouse, po, 5 mg/kg; remark: listed apart in the source
in vitro = settings: human, Caco-2

Row | Structure (SMILES) | clearance at 24 h (in vivo [1]) [mL/min/kg] | Vd at 24 h (in vivo [2]) [L/kg] | AUC at 24 h (in vivo [3]) [ng·h/mL] | half-life at 24 h (in vivo [4]) [h] | bioavailability at 24 h (in vivo [5]) [%] | Papp at 1 h, 10 µM (in vitro) [×10⁻⁶ cm/s]
1 | CC(C)(C)NC(=O)CN1Cc2ccc(-c3nc(NC4CCOCC4)ncc3Cl)cc2C1=O | 14 | 0.2 | 530 | 1 | 8 | 17
2 | O=C(CN1Cc2ccc(-c3nc(NC4CCOCC4)ncc3Cl)cc2C1=O)NCc1ccccc1 | 3.8 | 0.2 | 6900 | 1 | 32 | 
3 | O=C(CN1Cc2ccc(-c3nc(NC4CCOCC4)ncc3Cl)cc2C1=O)NC(CO)c1ccccc1 (single isomer, unassigned) | 11 | 0.6 | 3000 | 3 | 41 | 0.7
4 | CN(C(=O)CN1Cc2ccc(-c3nc(NC4CCOCC4)ncc3Cl)cc2C1=O)C(C)(C)C | 4.2 | 0.1 | 5900 | 0.7 | 30 | 22
5 | Cc1cccc([C@@H](CO)NC(=O)[C@@H](C)N2Cc3ccc(-c4nc(NC5CCOCC5)ncc4Cl)cc3C2=O)c1 | 13 | 0.6 | 3700 | 0.8 | 59 | 6.6
6 | O=C1c2cc(-c3nc(NC4CCOCC4)ncc3Cl)ccc2CN1CCN1CCOCC1 | 15 | 0.2 | 1800 | 2 | 32 | 40
7 | COCCN1Cc2ccc(-c3nc(NC4CCOCC4)ncc3Cl)cc2C1=O | 17 | 0.05 | 50 | 1 | 1 | 19
8 | C[C@H](C(=O)N[C@H](CO)c1ccccc1)N1Cc2ccc(-c3nc(NC4CCOCC4)ncc3Cl)cc2C1=O | 23 | 1 | 2600 | 0.7 | 70 | 13

From ChEMBL document CHEMBL4184340, “Fragment-Based Discovery of a Potent, Orally Bioavailable Inhibitor That Modulates the Phosphorylation and Catalytic Activity of ERK1/2” (J Med Chem, 2018)
